Measured values taken from article PMC8704389, “New Insights into the Hypotensins from Tityus serrulatus Venom: Pro-Inflammatory and Vasopeptidases Modulation Activities” (Toxins, 2021).
No end group written: not given here.

Tests used:
[1] = tested on: murine peritoneal macrophages; experiment: Phagocytic activity of murine peritoneal macrophages (Saccharomyces cerevisiae); format: cell-based, BALB/c mice; conditions: 100 µg/mL, 24 h, then 1 h with Saccharomyces cerevisiae; duplicate; versus negative control
Method: Figure 5 Phagocytic activity of the murine peritoneal macrophages stimulated in vitro with TsHpt-I and -II. Peritoneal exudate macrophages from naïve BALB/c mice were cultured on glass coverslips for 24 h in culture medium or in the presence of LPS (5 μg/mL) or TsHpt-I and -II (100 μg/mL). After this period, the cells were incubated for 1 h with a suspension of Saccharomyces cerevisiae. Coverslips were washed, fixed and stained by Giemsa. (A) Phagocytosis images in 400× magnification. (B) The phagocytic index was calculated based on the percentage of phagocytic cells and on the average number of yeasts per cell, by counting approximately 200 cells per coverslip in 1000× magnification. The results represent one of two reproducible experiments performed in duplicate (mean ± SD). * p < 0.05.
Peritoneal macrophages from naïve BALB/c mice (n = 6) were obtained as described above (item 5.5.1). Cells were distributed in 24-well culture plates (5 × 10^5 cells/500 µL/well), with glass coverslips inside, and incubated for 2 h at 37 °C and 5% CO2. […] Phagocytosis was evaluated by immersion optical microscopy (1000×) and quantified by counting approximately 200 cells per cover slip. The percentage of phagocytic cells and the average number of internalized yeasts per phagocytic cell were calculated. […]

ACE = tested on: T1, ACE; experiment: Stability of peptides against ACE (susceptibility to hydrolysis, RP-HPLC); format: in vitro ADME; conditions: rabbit, isolated ACE (angiotensin-converting enzyme); 30 µM peptide, ACE 3.0 ng, Tris HCl 100 mM, NaCl 50 mM, ZnCl2 10 µM, pH 7.0, 4 h, 37 °C, RP-HPLC C18, UV 214 nm; read-out: hydrolysis products after incubation with ACE
T1 construct: Angiotensin Converting Enzyme (ACE) from rabbit lung; purchased Sigma-Aldrich; host or cells: rabbit lung tissue
Method: Figure 1 Analysis of the susceptibility to hydrolysis of the hypotensins over the vasopeptidases NEP and ACE. Incubations were carried out in Tris HCl 100 mM, NaCl 50 mM and ZnCl2 10 µM, pH 7.0, for the ACE assays, and, for the NEP assays, in Tris HCl 50 mM, pH 7.5 buffer, for four hours at 37 °C. (A) TsHpt-I control (black line) and after incubation with NEP (red line). (B) TsHpt-II control (black line) and TsHpt-II incubated with NEP (red line). (C) TsHpt-I control (black line) and incubated with ACE (red line). (D) TsHpt-II control (black line) and after incubation with ACE (red line). The samples of negative and experimental controls (A) TsHpt-I and (B) TsHpt-II are shown on the left and right, respectively. The hydrolysis products were considered ≤5%. The gradient used was 20% to 60% solvent B in 20 min, and 60% to 100% solvent B in 5 min (flow 1 mL/min, absorbance at 214 nm). Restek Ultra C-18 5 µm column, 250 × 4.6 mm.
The synthetic peptides TsHpt-I and TsHpt-II (30 µM) were incubated with ACE (3.0 ng), in Tris HCl 100 mM, NaCl 50 mM and ZnCl2 10 µM, pH 7.0 buffer, and NEP (1.5 ng), in Tris HCl 50 mM, pH 7.5 buffer, at 37 °C for 4 h. Samples containing only the synthetic peptides were used as the negative control. After incubation, samples were analyzed by reverse phase chromatography on RP-HPLC (Shimadzu, Kyoto, Japan), using a Restek Ultra C-18 column (5 µm, 250 × 4.6 mm). […]

normotensive Wistar rats = conditions: by potentiating bradykinin; cited from earlier work
Text: Among the linear peptides we have the hypotensins (TsHpt), identified from TsV proteomic analyzes. Both peptides are made up of 25 amino acid residues that contain two consecutive prolines in their C-terminal portion and a punctual difference between TsHpt-I and -II, which is the residue at position 15, being a glutamine in TsHpt-I and a glutamic acid in TsHpt-II. […] The hypothesis is that the vasodilation effect is related to the releas ...

NEP = target: T2, NEP (Homo sapiens, UniProt P08473); experiment: Characterization of NEP inhibition (Ki and mechanism, Lineweaver-Burk); format: biochemical
T2 construct: gift of Prof; Adriana Carmona, Department of Biophysics, UNIFESP-EPM
T2 sequence (P08473 2-750): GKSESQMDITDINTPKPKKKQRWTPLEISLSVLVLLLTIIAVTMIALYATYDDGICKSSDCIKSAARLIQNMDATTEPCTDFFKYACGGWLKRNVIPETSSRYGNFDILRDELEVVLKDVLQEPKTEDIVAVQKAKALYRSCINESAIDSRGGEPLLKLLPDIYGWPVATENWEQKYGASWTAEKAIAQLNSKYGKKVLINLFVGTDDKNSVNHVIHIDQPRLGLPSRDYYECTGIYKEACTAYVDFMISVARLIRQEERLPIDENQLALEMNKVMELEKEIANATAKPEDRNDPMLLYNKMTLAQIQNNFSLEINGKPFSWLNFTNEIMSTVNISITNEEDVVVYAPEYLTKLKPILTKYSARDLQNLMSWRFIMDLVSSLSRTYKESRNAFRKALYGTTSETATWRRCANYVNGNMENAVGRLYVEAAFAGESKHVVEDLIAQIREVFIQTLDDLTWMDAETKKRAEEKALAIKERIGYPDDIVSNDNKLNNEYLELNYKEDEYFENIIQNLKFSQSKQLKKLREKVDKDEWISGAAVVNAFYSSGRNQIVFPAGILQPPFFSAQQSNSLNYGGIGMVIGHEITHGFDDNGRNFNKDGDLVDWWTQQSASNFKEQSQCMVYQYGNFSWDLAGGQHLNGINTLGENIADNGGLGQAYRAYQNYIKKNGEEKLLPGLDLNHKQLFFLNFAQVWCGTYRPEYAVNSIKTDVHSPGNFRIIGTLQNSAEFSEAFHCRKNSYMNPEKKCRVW
Method: Figure 2 Lineweaver–Burk plot of NEP inhibition by TsHpt-I. The inhibition constant (Ki) was determined using four Abz-RGFK-EDDnp substrate concentrations (4 μM, 6 μM, 8 μM and 10 μM), with variation in the concentration of TsHpt-I (3 μM and 4 μM), keeping the amount of enzyme fixed (1.5 ng). The experiment was performed in triplicate.
To determine the inhibition constant (Ki) of TsHpt-I over NEP, four concentrations of Abz-RGFK (Dnp)-OH (4 µM, 6 µM, 8 µM and 10 µM) and 3 µM and 4 µM of TsHpt-I were tested using 1.5 ng of peptidase in 100 µL of final volume of Tris HCl pH 7.5. The Km value of the substrate used was determined to be 14 µM [27]. Controls without the TsHpt-I were also performed in all assays. The reactions were monitored as described above (item 5.2). The Lineweaver–Burk plot was constructed (1/V × 1/(S)) according to the presented mechanism. The Ki was calculated as described by Segel. All assays were performed in triplicate.

AEIDFSGIPEDIIKEIKETNAKPPA [TsHpt-II]
phagocytic index [1]: significant increase in the phagocytic index
metabolised at 4 h, 30 µM (ACE): ≤ 5%

AEIDFSGIPEDIIKQIKETNAKPPA [TsHpt-I]
phagocytic index [1]: significant increase in the phagocytic index
hypotensive activity (normotensive Wistar rats): able to exert hypotensive activity
metabolised at 4 h, 30 µM (ACE): ≤ 5%
Ki (NEP): 4.35 µM
mechanism of inhibition of NEP (NEP; Lineweaver-Burk plot, triplicate): non-competitive inhibitor
